Target: APJ receptor (Homo sapiens (Human), UniProt P35414)
Experiment: [35S]GTPγS binding assay on membranes from CHO cells stably expressing human APJ receptor
Type: biochemical
Details: membranes of CHO cells stably expressing human APJ receptor, means of several independent experiments, read-out: Activity hAPJ SPA EC50 IP
Description: The human APJ receptor was cloned by polymerase chain reaction and the gene encoding the receptor was subcloned in pFLAG-CMV™-3 expression vector (Sigma, Saint Louis, Mo. USA) in-house at Amgen. A GTPγS binding assay was performed on membranes prepared from CHO cells stably expressing human APJ receptor. The optimum experimental conditions for the concentrations of GDP, MgCl2, and NaCl in the assay buffer were initially determined. The assay was performed in assay buffer [20 mM HEPES, pH 7.5, 5 mM MgCl2, and 0.1% (w/v) BSA with 200 mM NaCl, 3 μM GDP] and membranes expressing human APJ receptor/well along with WGA PS beads. The reaction was initiated by addition of 0.2 nM [^35S]GTPγS (Perkin Elmer Life and Analytical Sciences, Waltham USA) in the absence or presence of various ligands and incubated at RT for 90 min. Nonspecific binding was determined in the presence of 100 μM GTPγS and was always less than 0.2% of total binding. All the results presented are means of several independent experiments and analyzed by non-linear regression methods using commercially available program Prism (GraphPad, San Diego, Calif.) to obtain EC50 detailed in Table 26.

Sequence of APJ receptor (P35414 whole entry): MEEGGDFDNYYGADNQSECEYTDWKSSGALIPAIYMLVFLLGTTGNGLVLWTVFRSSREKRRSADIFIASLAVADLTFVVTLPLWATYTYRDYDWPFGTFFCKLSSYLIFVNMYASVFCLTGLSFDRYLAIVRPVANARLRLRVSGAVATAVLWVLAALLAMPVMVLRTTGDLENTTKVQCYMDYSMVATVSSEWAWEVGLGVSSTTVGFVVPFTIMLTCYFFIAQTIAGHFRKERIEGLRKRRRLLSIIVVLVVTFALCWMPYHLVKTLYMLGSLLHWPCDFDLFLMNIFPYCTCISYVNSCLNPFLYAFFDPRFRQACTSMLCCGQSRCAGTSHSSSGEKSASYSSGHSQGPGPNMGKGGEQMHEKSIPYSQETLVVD

EC50 [nM]	Compound
0.28	COc1cccc(OC)c1-n1c(NS(=O)(=O)[C@@H](C)Cc2ncc(Cl)cc2C#N)nnc1-c1ccco1 (mixture of isomers) [Example 18.0, (2S)-1-(5-chloro-3-cyano-2-pyridinyl)-N-(4-(2,6-dimethoxyphenyl)-5-(2-furanyl)-4H-1,2,4-triazol-3-yl)-2-propanesulfonamide and (2R)-1-(5-chloro-3-cyano-2-pyridinyl)-N-(4-(2,6-dimethoxyphenyl)-5-(2-furanyl)-4H-1,2,4-triazol-3-yl)-2-propanesulfonamide]
0.5	COc1cccc(OC)c1-n1c(NS(=O)(=O)CCN2C(=O)N(C)CC[C@H]2C)nnc1-c1ccc(C)o1 (mixture of isomers) [Example 160.0, N-(4-(2,6-Dimethoxyphenyl)-5-(5-methyl-2-furanyl)-4H-1,2,4-triazol-3-yl)-2-((6R)-3,6-dimethyl-2-oxotetrahydro-1 (2H)-pyrimidinyl)ethanesulfonamide and N-(4-(2,6-dimethoxyphenyl)-5-(5-methyl-2-furanyl)-4H-1,2,4-triazol-3-yl)-2-((6S)-3,6-dimethyl-2-oxotetrahydro-1(2H)-pyrimidinyl)ethanesulfonamide]
13	COc1cccc(OC)c1-n1c(NS(=O)(=O)[C@@H](C)[C@H](O)c2cn(C)cn2)nnc1-c1ccc(C)o1.COc1cccc(OC)c1-n1c(NS(=O)(=O)[C@H](C)[C@@H](O)c2cn(C)cn2)nnc1-c1ccc(C)o1 (mixture of isomers) [Example 301.0, (1R,2S)—N-(4-(2,6-Dimethoxyphenyl)-5-(5-methyl-2-furanyl)-4H-1,2,4-triazol-3-yl)-1-hydroxy-1-(1-methyl-1H-imidazol-4-yl)-2-propanesulfonamide and (1S,2R)—N-(4-(2,6-dimethoxyphenyl)-5-(5-methyl-2-furanyl)-4H-1,2,4-triazol-3-yl)-1-hydroxy-1-(1-methyl-1H-imidazol-4-yl)-2-propanesulfonamide]
83	COc1ccccc1-n1c(NS(=O)(=O)[C@@H](C)Cc2ncc(F)cn2)nnc1-c1ccco1.COc1ccccc1-n1c(NS(=O)(=O)[C@H](C)Cc2ncc(F)cn2)nnc1-c1ccco1 (mixture of isomers) [Example 310.0, (2S)-1-(5-Fluoro-2-pyrimidinyl)-N-(5-(2-furanyl)-4-(2-methoxyphenyl)-4H-1,2,4-triazol-3-yl)-2-propanesulfonamide and (2R)-1-(5-fluoro-2-pyrimidinyl)-N-(5-(2-furanyl)-4-(2-methoxyphenyl)-4H-1,2,4-triazol-3-yl)-2-propanesulfonamide]
230	C[C@@H](Cc1ncc(F)cn1)S(=O)(=O)Nc1nnc(-c2ccco2)n1C1CCCCC1.C[C@H](Cc1ncc(F)cn1)S(=O)(=O)Nc1nnc(-c2ccco2)n1C1CCCCC1 (mixture of isomers) [Example 313.0, (2R)—N-(4-Cyclohexyl-5-(2-furanyl)-4H-1,2,4-triazol-3-yl)-1-(5-fluoro-2-pyrimidinyl)-2-propanesulfonamide and (2S)—N-(4-cyclohexyl-5-(2-furanyl)-4H-1,2,4-triazol-3-yl)-1-(5-fluoro-2-pyrimidinyl)-2-propanesulfonamide]
230	C[C@@H](Cc1ncc(F)cn1)S(=O)(=O)Nc1nnc(-c2ccco2)n1-c1cccc2ccccc12 (mixture of isomers) [Example 314.0, (2R)-1-(5-Fluoro-2-pyrimidinyl)-N-(5-(2-furanyl)-4-(1-naphthalenyl)-4H-1,2,4-triazol-3-yl)-2-propanesulfonamide and (2S)-1-(5-fluoro-2-pyrimidinyl)-N-(5-(2-furanyl)-4-(1-naphthalenyl)-4H-1,2,4-triazol-3-yl)-2-propanesulfonamide]
270	COc1ccc(-n2c(NS(=O)(=O)[C@@H](C)Cc3ncc(F)cn3)nnc2-c2ccco2)c(OC)c1 (mixture of isomers) [Example 315.0, (2R)—N-(4-(2,4-Dimethoxyphenyl)-5-(2-furanyl)-4H-1,2,4-triazol-3-yl)-1-(5-fluoro-2-pyrimidinyl)-2-propanesulfonamide and (2S)—N-(4-(2,4-dimethoxyphenyl)-5-(2-furanyl)-4H-1,2,4-triazol-3-yl)-1-(5-fluoro-2-pyrimidinyl)-2-propanesulfonamide]
0.21	COc1ccnc(N2C[C@H](O)C[C@H](S(=O)(=O)Nc3nnc(-c4ccc(C)o4)n3-c3c(OC)cccc3OC)C2)n1 (mixture of isomers) [Example 324.0, (3S,5R)—N-(4-(2,6-Dimethoxyphenyl)-5-(5-methyl-2-furanyl)-4H-1,2,4-triazol-3-yl)-5-hydroxy-1-(4-methoxy-2-pyrimidinyl)-3-piperidinesulfonamide and (3R,5S)—N-(4-(2,6-dimethoxyphenyl)-5-(5-methyl-2-furanyl)-4H-1,2,4-triazol-3-yl)-5-hydroxy-1-(4-methoxy-2-pyrimidinyl)-3-piperidinesulfonamide]
19	COc1cccc(OC)c1-n1c(NS(=O)(=O)[C@@H]2CCCN(C(=O)N(C)C)C2)nnc1-c1ccco1.COc1cccc(OC)c1-n1c(NS(=O)(=O)[C@H]2CCCN(C(=O)N(C)C)C2)nnc1-c1ccco1 (mixture of isomers) [Example 338.0, (R)-3-(N-(4-(2,6-Dimethoxyphenyl)-5-(furan-2-yl)-4H-1,2,4-triazol-3-yl)sulfamoyl)-N,N-dimethylpiperidine-1-carboxamide and (S)-3-(N-(4-(2,6-dimethoxyphenyl)-5-(furan-2-yl)-4H-1,2,4-triazol-3-yl)sulfamoyl)-N,N-dimethylpiperidine-1-carboxamide]
0.19	COc1cccc(OC)c1-n1c(NS(=O)(=O)[C@@H](C)Cc2ncc(Cl)cc2NC(C)=O)nnc1-c1ccco1 (racemic) [Example 13.0, N-(5-chloro-2-((2S)-2-((4-(2,6-dimethoxyphenyl)-5-(2-furanyl)-4H-1,2,4-triazol-3-yl)sulfamoyl)propyl)-3-pyridinyl)acetamide and N-(5-chloro-2-((2R)-2-((4-(2,6-dimethoxyphenyl)-5-(2-furanyl)-4H-1,2,4-triazol-3-yl)sulfamoyl)propyl)-3-pyridinyl)acetamide]
0.2	COc1cccc(OC)c1-n1c(NS(=O)(=O)[C@@H](C)Cc2ccc(Cl)cn2)nnc1-c1ccco1 (racemic) [Example 14.0, (2R)-1-(5-chloro-2-pyridinyl)-N-(4-(2,6-dimethoxyphenyl)-5-(2-furanyl)-4H-1,2,4-triazol-3-yl)-2-propanesulfonamide and (2S)-1-(5-chloro-2-pyridinyl)-N-(4-(2,6-dimethoxyphenyl)-5-(2-furanyl)-4H-1,2,4-triazol-3-yl)-2-propanesulfonamide]
0.48	COc1cccc(OC)c1-n1c(NS(=O)(=O)[C@H](C)Cc2ncc(F)cc2NC(C)=O)nnc1-c1ccco1 (racemic) [Example 28.0, N-(2-((2R)-2-((4-(2,6-dimethoxyphenyl)-5-(2-furanyl)-4H-1,2,4-triazol-3-yl)sulfamoyl)propyl)-5-fluoro-3-pyridinyl)acetamide and N-(2-((2S)-2-((4-(2,6-dimethoxyphenyl)-5-(2-furanyl)-4H-1,2,4-triazol-3-yl)sulfamoyl)propyl)-5-fluoro-3-pyridinyl)acetamide]
0.54	COCC[C@@H]([C@H](C)c1ncc(F)cn1)S(=O)(=O)Nc1nnc(-c2ccc(C)o2)n1-c1c(OC)cccc1OC (racemic) [Example 74.0]

Compound	EC50 [nM]
COc1cccc(OC)c1-n1c(NS(=O)(=O)C[C@@H](C)c2ncc(F)cn2)nnc1-c1ccco1 (mixture of isomers) [Example 129.0, (S)-N-(4-(2,6-dimethoxyphenyl)-5-(furan-2-yl)-4H-1,2,4-triazol-3-yl)-2-(5-fluoropyrimidin-2-yl)propane-1-sulfonamide and (R)-N-(4-(2,6-dimethoxyphenyl)-5-(furan-2-yl)-4H-1,2,4-triazol-3-yl)-2-(5-fluoropyrimidin-2-yl)propane-1-sulfonamide]	3.3
COc1cccc(OC)c1-n1c(NS(=O)(=O)[C@@H]2C[C@H](O)CN(c3cnc(Cl)c(C#N)c3)C2)nnc1-c1ccc(C)o1 (mixture of isomers) [Example 322.0, (3S,5R)-1-(6-Chloro-5-cyano-3-pyridinyl)-N-(4-(2,6-dimethoxyphenyl)-5-(5-methyl-2-furanyl)-4H-1,2,4-triazol-3-yl)-5-hydroxy-3-piperidinesulfonamide and (3R,5S)-1-(6-chloro-5-cyano-3-pyridinyl)-N-(4-(2,6-dimethoxyphenyl)-5-(5-methyl-2-furanyl)-4H-1,2,4-triazol-3-yl)-5-hydroxy-3-piperidinesulfonamide]	0.2
COc1cccc(OC)c1-n1c(NS(=O)(=O)[C@H]2C[C@@H](O)CN(c3ncc(F)cc3C#N)C2)nnc1-c1ccc(C)o1 (mixture of isomers) [Example 330.0, (3S,5R)-1-(3-Cyano-5-fluoro-2-pyridinyl)-N-(4-(2,6-dimethoxyphenyl)-5-(5-methyl-2-furanyl)-4H-1,2,4-triazol-3-yl)-5-hydroxy-3-piperidinesulfonamide and (3R,5S)-1-(3-cyano-5-fluoro-2-pyridinyl)-N-(4-(2,6-dimethoxyphenyl)-5-(5-methyl-2-furanyl)-4H-1,2,4-triazol-3-yl)-5-hydroxy-3-piperidinesulfonamide]	0.43
